System: patients after acute myocardial infarction
Assay: Life quality, Seattle Angina Questionnaire (SAQ), same clinical trial
Assay type: in vivo, human
Conditions: PP
Source text: 3508 patients who were in accordance with the diagnostic standards of AMI for 28 days to 2 years and differentiated as Qi deficiency and blood stagnation syndrome by TCM were studied. 0.5 g Chinese medicine composition prepared by the method of EXAMPLE 1 (Coded as QSYQ) was administrated half an hour after meal, 3 times per day.
There were 19 questions in the Seattle angina questionnaire (SAQ), including 5 parts: physical limitation (PL), anginal stability (AS), anginal frequency (AF), treatment satisfaction (TS) and disease perception (DP). After being given necessary explanation by doctors, the questions were answered independently by patients.
They included the overall survival time, angina pectoris score, TCM symptom score and life quality score, where angina pectoris score, TCM symptom score and life quality score were evaluated at randomization, in 1st, 3rd, 6th, 9th, 12th month after treatment and 18th month after follow-up.
All evaluation results of SAQ were described during the period of observation, and Wilcoxon rank sum test was used for inter-group comparison.
The evaluation results in the SAQ were depicted in different observations, and inter-group comparison was tested by Wilcoxon Rank-sum test.

Structure (SMILES): CC(=O)Oc1ccccc1C(=O)O [Control group, aspirine]
- SAQ Question 1-1 Moderately limited, percent of patients (6 months after treatment): (0.28%)
- SAQ Question 1-1 Not limited, number of patients (6 months after treatment): 1368
- SAQ Question 1-1 Not limited, percent of patients (6 months after treatment): (94.34%)
- SAQ Question 1-1 Other reasons, number of patients (6 months after treatment): 3
- SAQ Question 1-1 Other reasons, percent of patients (6 months after treatment): (0.21%)
- SAQ Question 1-1 Severely limited, number of patients (6 months after treatment): 0
- SAQ Question 1-1 Severely limited, percent of patients (6 months after treatment): (0.00%)
- SAQ Question 1-1 Slightly limited, number of patients (6 months after treatment): 53
- SAQ Question 1-1 Slightly limited, percent of patients (6 months after treatment): (3.66%)
- SAQ Question 1-2 Mildly limited, number of patients (6 months after treatment): 19
- SAQ Question 1-2 Mildly limited, percent of patients (6 months after treatment): (1.31%)
- SAQ Question 1-2 Moderately limited, number of patients (6 months after treatment): 6
- SAQ Question 1-2 Moderately limited, percent of patients (6 months after treatment): (0.41%)
- SAQ Question 1-2 Not limited, number of patients (6 months after treatment): 1352
- SAQ Question 1-2 Not limited, percent of patients (6 months after treatment): (93.24%)
- SAQ Question 1-2 Other reasons, number of patients (6 months after treatment): 6
- SAQ Question 1-2 Other reasons, percent of patients (6 months after treatment): (0.41%)
- SAQ Question 1-2 Severely limited, number of patients (6 months after treatment): 1
- SAQ Question 1-2 Severely limited, percent of patients (6 months after treatment): (0.07%)
- SAQ Question 1-2 Slightly limited, number of patients (6 months after treatment): 66
- SAQ Question 1-2 Slightly limited, percent of patients (6 months after treatment): (4.55%)
- SAQ Question 1-6: Mildly limited, patients (%) (6 months after treatment): (16.24%)
- SAQ Question 1-6: Moderately limited, patients (%) (6 months after treatment): (12.07%)
- SAQ Question 1-6: Not limited, patients (%) (6 months after treatment): (34.35%)
- SAQ Question 1-6: Other reasons, patients (%) (6 months after treatment): (1.11%)
- SAQ Question 1-6: Severely limited, patients (%) (6 months after treatment): (3.19%)
- SAQ Question 1-6: Slightly limited, patients (%) (6 months after treatment): (33.03%)
- SAQ Question 1-7: Mildly limited, patients (%) (6 months after treatment): (21.45%)
- SAQ Question 1-7: Moderately limited, patients (%) (6 months after treatment): (12.58%)
- SAQ Question 1-7: Not limited, patients (%) (6 months after treatment): (14.47%)
- SAQ Question 1-7: Other reasons, patients (%) (6 months after treatment): (3.70%)
- SAQ Question 1-7: Severely limited, patients (%) (6 months after treatment): (14.88%)
- SAQ Question 1-7: Slightly limited, patients (%) (6 months after treatment): (32.91%)
- SAQ Question 1-8: Mildly limited, patients (%) (6 months after treatment): (25.91%)
- SAQ Question 1-8: Moderately limited, patients (%) (6 months after treatment): (16.01%)
- SAQ Question 1-8: Not limited, patients (%) (6 months after treatment): (10.81%)
- SAQ Question 1-8: Other reasons, patients (%) (6 months after treatment): (3.79%)
- SAQ Question 1-8: Severely limited, patients (%) (6 months after treatment): (18.96%)
- SAQ Question 1-8: Slightly limited, patients (%) (6 months after treatment): (24.51%)
- 8th question: Mostly satisfied, patients (%) (6 months after treatment, second line of the scale): (1.58%)
- 8th question: Dissatisfied, patients (%) (9 months after treatment): (0.28%)
- 8th question: Highly satisfied, patients (%) (9 months after treatment): (23.18%)
- 8th question: Mostly dissatisfied, patients (%) (9 months after treatment): (1.18%)
- 8th question: Mostly satisfied, patients (%) (9 months after treatment): (58.78%)
- 8th question: Partly satisfied, patients (%) (9 months after treatment): (16.59%)
- 9th question: Few, patients (%) (9 months after treatment): (38.61%)
- 9th question: Mild, patients (%) (9 months after treatment): (32.78%)
- 9th question: Moderate, patients (%) (9 months after treatment): (7.01%)
- 9th question: Severe, patients (%) (9 months after treatment): (0.35%)
- 9th question: Uneffective, patients (%) (9 months after treatment): (21.25%)
- 10th question: Dissatisfied, patients (%) (9 months after treatment): (18.81%)
- 10th question: Highly satisfied, patients (%) (9 months after treatment): (6.18%)
- 10th question: Mostly dissatisfied, patients (%) (9 months after treatment): (19.99%)
- 10th question: Mostly satisfied, patients (%) (9 months after treatment): (29.22%)
- 10th question: Partly satisfied, patients (%) (9 months after treatment): (25.82%)
- 11th question: Continuously worried, patients (%) (9 months after treatment): (2.43%)
- 11th question: No worried, patients (%) (9 months after treatment): (6.11%)
- 11th question: Occasionally worried, patients (%) (9 months after treatment): (42.40%)
- 11th question: Often worried, patients (%) (9 months after treatment): (11.73%)
- 11th question: Seldom worried, patients (%) (9 months after treatment): (37.34%)
- SAQ 4th question, 1-2 times per week: % of patients (9 months after treatment): (15.99%)
- SAQ 4th question, 1-2 times per week: number of patients (9 months after treatment): 230
- SAQ 4th question, 1-3 times per week: % of patients (9 months after treatment): (3.41%)
- SAQ 4th question, 1-3 times per week: number of patients (9 months after treatment): 49
- SAQ 4th question, <1 time per week: % of patients (9 months after treatment): (14.95%)
- SAQ 4th question, <1 time per week: number of patients (9 months after treatment): 215
- SAQ 4th question, Not used: % of patients (9 months after treatment): (61.54%)
- SAQ 4th question, Not used: number of patients (9 months after treatment): 885
- SAQ 4th question, ≧3 times per week: % of patients (9 months after treatment): (4.03%)
- SAQ 4th question, ≧3 times per week: number of patients (9 months after treatment): 58
- SAQ 4th question, ≧4 times per day: % of patients (9 months after treatment): (0.07%)
- SAQ 4th question, ≧4 times per day: number of patients (9 months after treatment): 1
- SAQ 5th question, 1-2 times per week: % of patients (9 months after treatment): (30.04%)
- SAQ 5th question, 1-2 times per week: number of patients (9 months after treatment): 432
- SAQ 5th question, 1-3 times per day: % of patients (9 months after treatment): (6.68%)
- SAQ 5th question, 1-3 times per day: number of patients (9 months after treatment): 96
- SAQ 5th question, <1 time per week: % of patients (9 months after treatment): (28.65%)

From patent US9211310B2, “Use of a Chinese medicine composition in preparing medicaments for treating secondary prevention of myocardial infarction” (TASLY PHARMACEUTICAL GROUP CO., LTD, priority 2010, dated 2015)
